Assay results taken from the supplement of paper PMC11061612.

What was measured:
Test in all cases: combination Emax (second highest fraction inhibited in the dose matrix, 72 h); higher = more inhibition; extreme values may be limits of the assay
[1] = test system: KURAMOCHI (Ovarian Carcinoma)
In short: (§1)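 Bliss excess equals the observed combination effect minus the expected value EA + EB − EA·EB, where EA and EB are the effects of each agent alone. Combination Emax is the second-highest inhibition within the matrix. Inhibition was scaled from CellTiter-Glo 2.0 luminescence, with 0 set by vehicle wells and 1 by blank wells, after 72 hours of two-drug dosing of cells plated in 1536-well plates.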

KELLY (Neuroblastoma) = test system: KELLY (Neuroblastoma)
In short: as §1

[2] = test system: DEL (T-Cell Non-Hodgkin's Lymphoma)
In short: as §1

[3] = test system: MFE-296 (Endometrial Carcinoma)
In short: as §1

[4] = test system: LNCaP-Clone-FGC (Prostate Carcinoma)
In short: as §1

NOS-1 (Osteosarcoma) = test system: NOS-1 (Osteosarcoma)
In short: as §1

[5] = test system: B-CPAP (Thyroid Gland Carcinoma)
In short: as §1

AGS (Gastric Carcinoma) = test system: AGS (Gastric Carcinoma)
In short: as §1

[6] = test system: OVCA420 (Ovarian Carcinoma)
In short: as §1

[7] = test system: UM-UC-3 (Bladder Carcinoma)
In short: as §1

[8] = test system: RO82-W-1 (Thyroid Gland Carcinoma)
In short: as §1

[9] = test system: Hs-578-T (Breast Carcinoma)
In short: as §1

[10] = test system: LS-180 (Colorectal Carcinoma)
In short: as §1

[11] = test system: MDA-MB-361 (Breast Carcinoma)
In short: as §1

[12] = test system: LB831-BLC (Bladder Carcinoma)
In short: as §1

[13] = test system: SNU-5 (Gastric Carcinoma)
In short: as §1

[14] = test system: HuP-T4 (Pancreatic Carcinoma)
In short: as §1

[15] = test system: CAL-148 (Breast Carcinoma)
In short: as §1

[16] = test system: EC-GI-10 (Esophageal Squamous Cell Carcinoma)
In short: as §1

[17] = test system: HO-1-N-1 (Oral Cavity Carcinoma)
In short: as §1

SMILES | combination Emax [1] | combination Emax (KELLY (Neuroblastoma)) | combination Emax [2] | combination Emax [3] | combination Emax [4] | combination Emax (NOS-1 (Osteosarcoma)) | combination Emax [5] | combination Emax (AGS (Gastric Carcinoma)) | combination Emax [6] | combination Emax [7] | combination Emax [8] | combination Emax [9] | combination Emax [10] | combination Emax [11] | combination Emax [12] | combination Emax [13] | combination Emax [14] | combination Emax [15] | combination Emax [16] | combination Emax [17]
CCc1c2c(nc3ccc(O)cc13)-c1cc3c(c(=O)n1C2)COC(=O)[C@]3(O)CC [SN-38] + CN(C)CCCOc1ccc(-c2ccc3ncc4c(c3c2)n(C2CCOCC2)c(=O)n4C)cn1 [AZD0156] (first compound max 0.3 µM, 7x7, partner max 1 µM) | 0.659 | 0.869 | 1 | 0.496 | 0.76 | 0.0879 | 0.867 | 0.814 | 0.171 | 0.978 | 0.46 | 0.635 | 0.713 | 0.397 | 0.723 | 0.945 | 0.96 | 0.912 | 0.776 | 1
C[C@@H](c1ccc2nccn2c1)n1nnc2ncc(-c3cnn(C)c3)nc21 [Savolitinib] + CC1(C)CCC(CN2CCN(c3ccc(C(=O)NS(=O)(=O)c4ccc(NCC5CCOCC5)c([N+](=O)[O-])c4)c(Oc4cnc5[nH]ccc5c4)c3)CC2)=C(c2ccc(Cl)cc2)C1 [Venetoclax] (first compound max 1 µM, 7x7, partner max 1 µM) | 0.15 | 0.357 | 0.0701 | 0.0764 | 0.0523 | 0.0631 | 0.155 | 0.0926 | 0.0542 | 0.143 | 0.169 | 0.312 | 0.205 | 0.119 | 0.179 | 0.847 | 0.0793 | 0.143 | 0.116 | 0.158
C[C@@H](c1ccc2nccn2c1)n1nnc2ncc(-c3cnn(C)c3)nc21 [Savolitinib] + Cc1c2c(nn1C)CSCc1cc(n(C)n1)CSc1cc(c3ccccc3c1)OCCCc1c(C(=O)O)n(C)c3c-2c(Cl)ccc13 [AZD5991] (first compound max 1 µM, 7x7, partner max 1 µM) | 0.286 | 0.805 | 1 | 0.244 | 0.163 | 0.742 | 0.211 | 0.241 | 0.213 | 0.14 | 0.169 | 0.47 | 0.199 | 0.735 | 0.232 | 0.937 | 0.265 | 0.275 | 0.285 | 0.488
Cn1cnc2c(F)c(Nc3ccc(Br)cc3Cl)c(C(=O)NOCCO)cc21 [Selumetinib] + C=CCn1c(=O)c2cnc(Nc3ccc(N4CCN(C)CC4)cc3)nc2n1-c1cccc(C(C)(C)O)n1 [AZD1775] (first compound max 10 µM, partner max 1 µM) | 0.65 | 1 | 1 | 0.163 | 0.625 | 0.818 | 0.472 | 0.932 | 0.508 | 0.268 | 0.183 | 0.577 | 0.604 | 0.819 | 0.406 | 0.638 | 0.396 | 0.849 | 0.919 | 0.718
Cn1cnc2c(F)c(Nc3ccc(Br)cc3Cl)c(C(=O)NOCCO)cc21 [Selumetinib] + CC(C)n1c(=O)n(C)c2cnc3cc(F)c(-c4ccc(OCCCN5CCCCC5)nc4)cc3c21 [AZD1390] (first compound max 10 µM, 7x7, partner max 0.3 µM) | 0.194 | 0.22 | 0.237 | 0.0966 | 0.0956 | 0.257 | 0.254 | 0.842 | 0.436 | 0.187 | 0.125 | 0.369 | 0.573 | 0.12 | 0.214 | 0.54 | 0.293 | 0.158 | 0.323 | 0.506
Cn1cnc2c(F)c(Nc3ccc(Br)cc3Cl)c(C(=O)NOCCO)cc21 [Selumetinib] + CCN(CCO)CCCOc1ccc2c(Nc3cc(CC(=O)Nc4cccc(F)c4)[nH]n3)ncnc2c1 [AZD2811] (first compound max 10 µM, 7x7, partner max 1 µM) | 0.251 | 0.645 | 0.965 | 0.125 | 0.284 | 0.313 | 0.346 | 0.954 | 0.493 | 0.224 | 0.203 | 0.491 | 0.623 | 0.193 | 0.226 | 0.569 | 0.421 | 0.927 | 0.546 | 0.737
Cn1cnc2c(F)c(Nc3ccc(Br)cc3Cl)c(C(=O)NOCCO)cc21 [Selumetinib] + C[C@@H]1COCCN1C2=NC(=NC(=C2)C3(CC3)[S@](=N)(=O)C)C4=C5C=CNC5=NC=C4 [AZD6738] (first compound max 10 µM, 7x7, partner max 10 µM) | 0.554 | 0.952 | 1 | 0.339 | 0.673 | 0.784 | 0.421 | 0.986 | 0.562 | 0.312 | 0.266 | 0.628 | 0.76 | 0.795 | 0.278 | 0.961 | 0.568 | 0.825 | 0.647 | 0.763
CC(=O)Nc1cccc(-n2c(=O)n(C3CC3)c(=O)c3c(Nc4ccc(I)cc4F)n(C)c(=O)c(C)c32)c1 [Trametinib] + Cc1nc(-c2cn3c(n2)-c2ccc(-c4cnn(C(C)(C)C(N)=O)c4)cc2OCC3)n(C(C)C)n1 [Taselisib] (first compound max 1 µM, 7x7, partner max 10 µM) | 0.703 | 0.47 | 0.618 | 0.43 | 0.813 | 0.928 | 0.558 | 1 | 0.917 | 0.773 | 0.41 | 0.919 | 0.903 | 0.976 | 0.77 | 0.829 | 0.832 | 0.986 | 1 | 0.991
CC1(C)CCC(CN2CCN(c3ccc(C(=O)NS(=O)(=O)c4ccc(NCC5CCOCC5)c([N+](=O)[O-])c4)c(Oc4cnc5[nH]ccc5c4)c3)CC2)=C(c2ccc(Cl)cc2)C1 [Venetoclax] + C1CN(CCC1(C(=O)N[C@@H](CCO)C2=CC=C(C=C2)Cl)N)C3=NC=NC4=C3C=CN4 [Capivasertib] (first compound max 1 µM, 7x7, partner max 3 µM) | 0.536 | 0.998 | 0.295 | 0.37 | 0.916 | 0.171 | 0.177 | 0.316 | 0.146 | 0.272 | 0.251 | 0.812 | 0.287 | 0.474 | 0.334 | 0.336 | 0.0995 | 0.966 | 0.426 | 0.258
CC1(C)CCC(CN2CCN(c3ccc(C(=O)NS(=O)(=O)c4ccc(NCC5CCOCC5)c([N+](=O)[O-])c4)c(Oc4cnc5[nH]ccc5c4)c3)CC2)=C(c2ccc(Cl)cc2)C1 [Venetoclax] + C=CCn1c(=O)c2cnc(Nc3ccc(N4CCN(C)CC4)cc3)nc2n1-c1cccc(C(C)(C)O)n1 [AZD1775] (first compound max 1 µM, partner max 1 µM) | 0.755 | 1 | 1 | 0.3 | 0.689 | 0.675 | 0.502 | 0.595 | 0.384 | 0.294 | 0.261 | 0.909 | 0.42 | 0.865 | 0.677 | 0.557 | 0.378 | 0.952 | 0.903 | 0.745
CC1(C)CCC(CN2CCN(c3ccc(C(=O)NS(=O)(=O)c4ccc(NCC5CCOCC5)c([N+](=O)[O-])c4)c(Oc4cnc5[nH]ccc5c4)c3)CC2)=C(c2ccc(Cl)cc2)C1 [Venetoclax] + CCN(CCO)CCCOc1ccc2c(Nc3cc(CC(=O)Nc4cccc(F)c4)[nH]n3)ncnc2c1 [AZD2811] (first compound max 1 µM, 7x7, partner max 1 µM) | 0.471 | 0.985 | 0.754 | 0.124 | 0.272 | 0.255 | 0.206 | 0.346 | 0.188 | 0.16 | 0.141 | 0.802 | 0.244 | 0.334 | 0.188 | 0.151 | 0.263 | 0.933 | 0.308 | 0.687
CC1(C)CCC(CN2CCN(c3ccc(C(=O)NS(=O)(=O)c4ccc(NCC5CCOCC5)c([N+](=O)[O-])c4)c(Oc4cnc5[nH]ccc5c4)c3)CC2)=C(c2ccc(Cl)cc2)C1 [Venetoclax] + CN(C)CCCOc1ccc(-c2ccc3ncc4c(c3c2)n(C2CCOCC2)c(=O)n4C)cn1 [AZD0156] (first compound max 1 µM, 7x7, partner max 1 µM) | 0.567 | 0.976 | 0.192 | 0.144 | 0.35 | 0.194 | 0.28 | 0.221 | 0.178 | 0.252 | 0.126 | 0.793 | 0.166 | 0.261 | 0.228 | 0.222 | 0.144 | 0.716 | 0.221 | 0.53
